In general, IC50 refers to the concentration that inhibits the measured activity by half.

This experiment concerns the target KRAS G12C and cRAF (Ras-binding domain) interaction (Homo sapiens (Human), UniProt P01116, C118S/C51S/C80L/G12C). In words: Inhibition of KRAS G12C and cRAF binding (AlphaScreen). In outline:
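Compounds (DMSO) preincubated 19-20 h at room temperature, then RBD with streptavidin donor and glutathione acceptor beads added in 25 mM Hepes pH 7.4, 150 mM NaCl, 5 mM MgCl2, 0.01% Triton X-100, 2% DMSO for 60-90 min. Emission 570 nm (excitation 680 nm); IC50 by 4-parameter fit. Counter-screen used biotin-AviTag-GST instead of RBD.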
A general note: Bead proximity is the source of the signal in Alpha formats.

[1] abbreviates: additional exemplary compounds, KRAS G12C and cRAF binding, read-out: RAF1 RBD IC50.
Where [2] appears, read: GMPPNP-loaded KRAS G12C, 19-20 hours incubation with compound, read-out: IC50 (Inhibition of KRAS G12C and cRAF Binding).

Read-outs that look alike come from different tables or passages of the source.

Sequence of KRAS G12C and cRAF (Ras-binding domain) interaction (P01116 other isoform, or with tags, fused parts or gaps G12C/C51S/C80L/C118S): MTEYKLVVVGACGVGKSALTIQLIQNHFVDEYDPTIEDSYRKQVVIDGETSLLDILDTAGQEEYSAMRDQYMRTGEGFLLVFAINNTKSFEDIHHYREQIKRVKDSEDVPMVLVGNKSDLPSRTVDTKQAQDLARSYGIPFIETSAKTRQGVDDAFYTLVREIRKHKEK

Take `CN(C)C(=O)/C=C/C(=O)N1CC[C@@H](N(C)c2nc(OCC34CCCN3CCC4)nc3c2CCN(c2cccc4cccc(Cl)c24)C3)C1`: the IC50 under setting [1] is more than 500 nM.

In the case of `O=C(/C=C/CN1CCOCC1)N1CC2CC(C1)N2c1nc(OC[C@@]23CCCN2C[C@H](F)C3)nc2c(F)c(-c3cccc4cccc(Cl)c34)ncc12`, the IC50 under setting [1] was more than 500 nM. Turning to `CN(c1nc(OCC23CCCN2CCC3)nc2c1CCN(c1cccc3cccc(Cl)c13)C2)[C@@H]1CCN(C#N)C1` [Example 39, (R)-3-((7-(8-chloronaphthalen-1-yl)-2-((tetrahydro-1H-pyrrolizin-7a(5H)-yl)methoxy)-5,6,7,8-tetrahydropyrido[3,4-d]pyrimidin-4-yl)(methyl)amino)pyrrolidine-1-carbonitrile], the IC50 under setting [2] is 100 to 500 nM. Take `Cc1nsc(/C=C/C(=O)N2C[C@@H](F)[C@H](N(C)c3nc(OC[C@@]45CCCN4C[C@H](F)C5)nc4c(F)c(-c5cccc6cccc(Cl)c56)ncc34)C2)n1`: under setting [1], the concentration for half-maximal inhibition (IC50) was more than 500 nM. The same measure, in the same setting: the value for `Cc1nccc(/C=C/C(=O)N2CCCN(c3nc(OC[C@@]45CCCN4C[C@H](F)C5)nc4c(F)c(-c5cccc6cccc(Cl)c56)ncc34)CC2)n1` was more than 500 nM.

As to `C=CC(=O)N1CCC(CN(C)c2nc(OC[C@@]34CCCN3C[C@H](F)C4)nc3c(F)c(-c4cccc5cccc(Cl)c45)ncc23)C1` (some centres unmarked), the IC50 under setting [1] was more than 500 nM. `N#CN1C2CCC1CN(c1nc(OC[C@@]34CCCN3C[C@H](F)C4)nc3c1CCN(c1cccc4ccc(F)c(Cl)c14)C3)C2`: the IC50 under setting [1] was more than 500 nM.

As for `C=CC(=O)N1CCCC1CNc1nc(OC[C@@]23CCCN2C[C@H](F)C3)nc2c(F)c(-c3cccc4cccc(Cl)c34)ncc12` (some centres unmarked), the IC50 under setting [1] was more than 500 nM.

For `CN(c1nc(OC[C@@]23CCCN2C[C@H](F)C3)nc2c(F)c(-c3cccc4cccc(Cl)c34)ncc12)[C@@H]1CCN(C(=O)/C=C/c2ncncc2F)C1` [Example 230, (E)-1-((R)-3-((7-(8-chloronaphthalen-1-yl)-8-fluoro-2-(((2R,7aS)-2-fluorotetrahydro-1H-pyrrolizin-7a(5H)-yl)methoxy)pyrido[4,3-d]pyrimidin-4-yl)(methyl)amino)pyrrolidin-1-yl)-3-(5-fluoropyrimidin-4-yl)prop-2-en-1-one], under setting [2], the IC50 is 10 to 100 nM. `C=CC(=O)N1CCC[C@@H](N(C)c2nc(OC[C@@]34CCCN3C[C@H](F)C4)nc3c(F)c(-c4cccc5cccc(Cl)c45)ncc23)C1`: the IC50 under setting [1] is more than 500 nM. With `C=CC(=O)N1CC[C@@H](N(C)c2nc(OC[C@@]34CCCN3C[C@H](F)C4)nc3c(F)c(-c4cccc5cccc(C#N)c45)ncc23)C1` [Example 297, 8-(4-(((R)-1-acryloylpyrrolidin-3-yl)(methyl)amino)-8-fluoro-2-(((2R,7aS)-2-fluorotetrahydro-1H-pyrrolizin-7a(5H)-yl)methoxy)pyrido[4,3-d]pyrimidin-7-yl)-1-naphthonitrile], under setting [2], the IC50 fell in the range of 100 to 500 nM.

For `CN1CCC1/C=C/C(=O)N1CCCN(c2nc(OC[C@@]34CCCN3C[C@H](F)C4)nc3c(F)c(-c4cccc5cccc(Cl)c45)ncc23)CC1` (some centres unmarked), the IC50 under setting [1] is more than 500 nM. For the compound `CN(c1nc(OC[C@@]23CCCN2C[C@H](F)C3)nc2c(F)c(-c3cccc4cccc(Cl)c34)ncc12)[C@@H]1CCN(C#N)C1`, the IC50 under setting [1] was 10 to 100 nM.

`C=CC(=O)N1C[C@H](N(C)c2nc(OCC34CCCN3CCC4)nc3c(F)c(-c4cccc5cccc(Cl)c45)ncc23)CC1C#N` (stereo partly drawn) [Example 118, (4R)-1-acryloyl-4-((7-(8-chloronaphthalen-1-yl)-8-fluoro-2-((hexahydro-1H-pyrrolizin-7a-yl)methoxy)pyrido[4,3-d]pyrimidin-4-yl)(methyl)amino)pyrrolidine-2-carbonitrile]: the IC50 under setting [2] fell in the range of 10 to 100 nM.

The values are drawn from patent US20250019387A1 (Frontier Medicines Corporation, priority 0001, published 2025).
